Data reported in patent publication US20180296456A1, “Decapeptide-12 Modulation of Sirtuin Gene Expression in Epidermal Keratinocyte Progenitors” (Escape Therapeutics, Inc., priority 2017, published 2018).
Peptide text beside a SMILES is read from it.

Experiments:
SIRT3 = SIRT3 transcription, semi-quantitative RT-PCR in human epidermal progenitors; type: cell-based; settings: 72 h
Description: (§1) Human neonatal epidermal progenitors (Thermo Fisher Scientific, NY) were seeded in 6-well plates at a density of 2×10^5 cells/well. Each well received 2 ml of Epilife media containing 60 μM calcium chloride (Thermo Fisher Scientific, NY). Plates were incubated in a humidified chamber at 37 degrees Celsius and 5 percent CO2. Twenty-four hours later, cells were treated with various concentrations of oxyresveratrol or decapeptide-12 dissolved in PBS containing 5 percent DMSO. Control wells received vehicle only (5 percent DMSO and PBS). Final concentration of DMSO in each well was 0.05 percent.
(§2) After a 72 hour incubation period, cells were trypsinized and total RNA extracted, using RNeasy kit (Qiagen, Valencia, Calif.) according to the manufacturer's protocol.
(§3) RNA concentration was determined using nanodrop (Thermo fisher scientific, NY). Two μg of total RNA were used to synthesize cDNA using oligo dT primers and TaqMan reverse transcription reagents (Thermo fisher scientific, NY). The reaction was carried out in DNA Engine Peltier Thermal Cycler (Bio-Rad, Hercules, Calif.). The annealing temperature was 25 degrees Celsius for 10 minutes, followed by first strand synthesis at 48 degrees Celsius for 1 hour, and heat inactivation at 95 degrees Celsius for 5 minutes.
(§4) The SIRT1-7 primers (table 1) were designed using Primer3. The semi-quantitative PCR reactions were performed on a DNA Engine Peltier Thermo Cycler (Bio-Rad, Hercules, Calif.). PCR was carried under the following conditions: denaturation at 94 degrees Celsius for 2 minutes and primer extension at 54 degrees Celsius for 30 seconds in 34 cycles for SIRT 1-7 and the housekeeping gene 18S.
(§5) Samples were run and resolved on a 1.5 percent agarose gel containing 0.5 μg/ml of ethidium bromide and imaged using the FluorChem HD2 Imaging System (Protein simple, San Jose, Calif.). Densitometry analysis was carried out using the AlphaEase FC software (Protein simple, San Jose, Calif.). Intensity ratios were calculated as the intensity value for each gene divided by the intensity value of the internal control gene 18S.
(§6) The effect of the decapeptides P4, P4A, P4B, and P4C upon the transcription levels of sirtuins 1-7 was evaluated. Table 4 summarizes transcription levels for all four decapeptides with the corresponding genes, at tested concentrations of: 10, 30, 50, 100, and 300 (all in μM).

in vitro = type: cell-based; settings: human, human epidermal progenitors
Description: Proliferation rates were determined using a TACS® MTT Cell Proliferation Kit (R&D systems, Minneapolis, Minn.). Cells were seeded at 2.5×10^4/well in 96-well plates in a humidified atmosphere with 5 percent CO2 at 37 degrees Celsius. Twenty-four hours later, decapeptide-12 or oxyresveratrol were added to the corresponding wells at varying concentrations (0, 3, 10, 30, 100, 300, and 1000 μM), and cultures were then incubated for 72 hours. The remainder of the procedure was performed following the manufacturer's protocol.
(§7) Proliferation rates for three human cell lines (epidermal progenitors, melanoblasts, and fibroblasts) were determined using a TACS® MTT Cell Proliferation Kit. Cells were seeded at 2.5×10^4/well in 96-well plates in a humidified atmosphere with 5 percent CO2 at 37 degrees Celsius. Twenty-four hours later, the decapeptides were added to the corresponding wells at varying concentrations and incubated for 72 hours. The remainder of the procedure was performed following the manufacturer's protocol.

[1] = MTT cell proliferation assay, melanoblasts; type: cell-based, human; settings: human, MTT, 72 h, read-out: melanoblast proliferation rate after 72 hours
Description: as §7

[2] = Trypan blue cell viability, 7 days, epidermal progenitors; type: cell-based; settings: human, relative to control, read-out: epidermal progenitor viability after 7 days
Description: (§8) The effect of each of the decapeptides upon cell viability was also tested. In particular, cells were incubated with the decapeptide at various concentrations and then counted for viability relative to the control (untreated cells) using trypan blue. Cytotoxicity was measured according to the following formula:
(§9) [1−(# of cells in control−# of live cells in test sample)/# of cells in control]×100 percent.

SIRT4 = SIRT4 transcription, semi-quantitative RT-PCR in human epidermal progenitors; type: cell-based; settings: 72 h
Description: as §1, §2, §3, §4, §5, §6

[3] = Trypan blue cell viability, 7 days, melanoblasts; type: cell-based; settings: human, relative to control, read-out: melanoblast viability after 7 days
Description: as §8, §9

SIRT1 = SIRT1 transcription, semi-quantitative RT-PCR in human epidermal progenitors; type: cell-based; settings: 72 h
Description: as §1, §2, §3, §4, §5, §6

SIRT6 = SIRT6 transcription, semi-quantitative RT-PCR in human epidermal progenitors; type: cell-based; settings: 72 h
Description: as §1, §2, §3, §4, §5, §6

SIRT2 = SIRT2 transcription, semi-quantitative RT-PCR in human epidermal progenitors; type: cell-based; settings: 72 h
Description: as §1, §2, §3, §4, §5, §6

For `CCCCCCCCCCCCCCCC(=O)N[C@@H](Cc1ccc(O)cc1)C(=O)N[C@@H](CCCNC(=N)N)C(=O)N[C@@H](CO)C(=O)N[C@@H](CCCNC(=N)N)C(=O)N[C@@H](CCCCN)C(=O)N[C@H](Cc1ccc(O)cc1)C(=O)N[C@@H](CO)C(=O)N[C@@H](CO)C(=O)N[C@@H](Cc1c[nH]c2ccccc12)C(=O)N[C@@H](Cc1ccc(O)cc1)C(N)=O` [P4B, Palmitoyl-YRSRK[*Y]SSWY-amide] (HELM PEPTIDE1{[CCCCCCCCCCCCCCCC(=O)[*:2]].Y.R.S.R.K.[dY].S.S.W.Y.[am]}$$$$V2.0), the “SIRT3 transcription increase relative to control” value (SIRT3; 10 μM) was 22 ± 3%, the “SIRT3 transcription increase relative to control” value (SIRT3; 30 μM) was 23 ± 2% and the “SIRT3 transcription increase relative to control” value (SIRT3; 50 μM) was 28 ± 5%. The “SIRT3 transcription increase relative to control” value (SIRT3; 100 μM) was 78 ± 10%, the “SIRT3 transcription increase relative to control” value (SIRT3; 300 μM) was 142 ± 5% and the viability at 72 h, 3 µM (in vitro) was 99 ± 1%. For the same compound, the viability at 72 h, 10 µM (in vitro) was 99 ± 1%, the viability at 72 h, 30 µM (in vitro) was 98 ± 1% and the viability at 72 h, 50 µM (in vitro) was 98 ± 1%. The viability at 72 h, 100 µM (in vitro) was 97 ± 1%, the viability at 72 h, 300 µM (in vitro) was 97 ± 1% and the viability at 72 h, 500 µM (in vitro) was 95 ± 2%. It also gave a viability at 72 h, 1000 µM (in vitro) of 94 ± 2%, a viability at 72 h, 3 µM ([1]; 3 μM) of 100% and a viability at 72 h, 10 µM ([1]; 10 μM) of 100%. It also gave a viability at 72 h, 30 µM ([1]; 30 μM) of 99 ± 1%, a viability at 72 h, 50 µM ([1]; 50 μM) of 98 ± 1% and a viability at 72 h, 100 µM ([1]; 100 μM) of 97 ± 2%. The viability at 72 h, 300 µM ([1]; 300 μM) was 96 ± 2%, the viability at 72 h, 500 µM ([1]; 500 μM) was 95 ± 2% and the viability at 72 h, 1000 µM ([1]; 1000 μM) was 94 ± 2%. The viability at 168 h, 3 µM ([2]; 3 μM) was 100%, the viability at 168 h, 10 µM ([2]; 10 μM) was 99 ± 1% and the viability at 168 h, 30 µM ([2]; 30 μM) was 98.2 ± 1%. For the same compound, the viability at 168 h, 50 µM ([2]; 50 μM) was 98 ± 1%, the viability at 168 h, 100 µM ([2]; 100 μM) was 97 ± 1% and the viability at 168 h, 300 µM ([2]; 300 μM) was 96.5 ± 2%. For the same compound, the viability at 168 h, 500 µM ([2]; 500 μM) was 95.5 ± 2%, the viability at 168 h, 1000 µM ([2]; 1000 μM) was 94.5 ± 2% and the “SIRT4 transcription increase relative to control” value (SIRT4; 10 μM) was 9 ± 1%. The “SIRT4 transcription increase relative to control” value (SIRT4; 30 μM) was 10 ± 1%, the “SIRT4 transcription increase relative to control” value (SIRT4; 50 μM) was 17 ± 1% and the “SIRT4 transcription increase relative to control” value (SIRT4; 100 μM) was 86 ± 6%. For the same compound, the “SIRT4 transcription increase relative to control” value (SIRT4; 300 μM) was 49 ± 4%, the viability at 168 h, 3 µM ([3]; 3 μM) was 100% and the viability at 168 h, 10 µM ([3]; 10 μM) was 98.5 ± 1%. For the same compound, the viability at 168 h, 30 µM ([3]; 30 μM) was 97.8 ± 3%, the viability at 168 h, 50 µM ([3]; 50 μM) was 97.2 ± 2% and the viability at 168 h, 100 µM ([3]; 100 μM) was 96.3 ± 2%. For the same compound, the viability at 168 h, 300 µM ([3]; 300 μM) was 95.6 ± 2%, the viability at 168 h, 500 µM ([3]; 500 μM) was 94.6 ± 2% and the viability at 168 h, 1000 µM ([3]; 1000 μM) was 93.8 ± 2%. For the same compound, the “SIRT1 transcription increase relative to control” value (SIRT1; 10 μM) was 10 ± 4%, the “SIRT1 transcription increase relative to control” value (SIRT1; 30 μM) was 10 ± 3% and the “SIRT1 transcription increase relative to control” value (SIRT1; 50 μM) was 48 ± 3%. The “SIRT1 transcription increase relative to control” value (SIRT1; 100 μM) was 135 ± 12%, the “SIRT1 transcription increase relative to control” value (SIRT1; 300 μM) was 155 ± 3% and the “SIRT6 transcription increase relative to control” value (SIRT6; 10 μM) was 21 ± 5%. For the same compound, the “SIRT6 transcription increase relative to control” value (SIRT6; 30 μM) was 22 ± 4%, the “SIRT6 transcription increase relative to control” value (SIRT6; 50 μM) was 10 ± 4% and the “SIRT6 transcription increase relative to control” value (SIRT6; 100 μM) was 107 ± 2%. The “SIRT6 transcription increase relative to control” value (SIRT6; 300 μM) was 81 ± 4%, the “SIRT2 transcription increase relative to control” value (SIRT2; 10 μM) was 5 ± 1% and the “SIRT2 transcription increase relative to control” value (SIRT2; 30 μM) was 8 ± 3%. The “SIRT2 transcription increase relative to control” value (SIRT2; 50 μM) was 17 ± 6%, the “SIRT2 transcription increase relative to control” value (SIRT2; 100 μM) was 52 ± 4% and the “SIRT2 transcription increase relative to control” value (SIRT2; 300 μM) was 40 ± 4%.
